{
  "source": "patent US20060099648A1",
  "about": "“Compositions and methods for epitope mapping” (priority 2000, published 2006)",
  "data": [
    {"biological_target": "Human IgG (Calbiochem; San Diego Calif.) (human)", "test": "IgG displaced from peptide pin; competitor MSP1-19", "conditions": "not given", "units": {"ΔF (%)": "%"}, "values": [
      {"molecule": "FDGIF", "note": "[Peptide# 87]", "ΔF (%)": 9},
      {"molecule": "GIFCS", "note": "[Peptide# 89]", "ΔF (%)": 11},
      {"molecule": "DGIFC", "note": "[Peptide# 88]", "ΔF (%)": 7},
      {"molecule": "LFDGI", "note": "[Peptide# 86]", "ΔF (%)": 11},
      {"molecule": "PLFDG", "note": "[Peptide# 85]", "ΔF (%)": 16},
      {"molecule": "KKQCP", "note": "[Peptide# 9]", "ΔF (%)": "< 5"}
    ]},
    {"tested_on": "MSP1-19", "test": "Epitope mapping: displacement of human IgG from peptide pins on exposure to MSP1-19", "design": "species or system Plasmodium falciparum", "conditions": "change in human IgG binding to peptide pin after 1 h exposure to 50 mg/mL MSP1-19 at room temperature; normalised to no-peptide pins and control peptide GLAQG", "procedure": "A natural human IgG antibody library was tested for its ability to bind to peptides associated with the 19 kDa C-terminal region of merozoite surface protein 1 (MSP1-19) from Plasmodium falciparum (Kaslow et al., Mol. Biochem. Parasitology 63:283-289 (1994)). The 89 amino acid sequence from MSP1-19 was used for the epitope mapping experiment (see Table 1).\nBriefly, a library of pentamer peptides was synthesized on polypropylene pins following the procedures described by Geysen et al., Proc. Natl. Acad. Sci. USA 81:3998-4002 (1984). These peptides represented all five-amino-acid stretches of MSP1-19 offset by one residue (Table 1). Peptide pins were precoated in phosphate buffered saline (PBS), pH 7.2, containing 2% BSA and 0.1% TWEEN 20 for one hour at room temperature. Five successive washes of the pins were carried out for five minutes each with agitation in PBS. Human IgG (Calbiochem; San Diego Calif.) was complexed to the peptides by incubating 0.1 mg/mL IgG in PBS at 4° C. for 30 hours. Unbound antibody was removed by washing as described above in 10 mM TRIS, pH 7.4 buffer containing 150 mM NaCl (TBS) using new microtiter plates for transferring the pins for each of the five washings. Anti-human IgG (goat) alkaline phosphatase conjugate was diluted to 0.1 mg specific antibody/mL in TBS and incubated with the peptide/antibody complex for one hour at room temperature before washing five times with TBS, as described above. The pins were then incubated in assay solution containing 10 mM TRIS, pH 8.0, 150 mM NaCl, 0.5 mM MgCl2, and 0.1 mM 4-methylumbelliferyl-phosphate for 30 minutes at room temperature in the dark. Following incubation, the fluorescence intensity of the assay solution was measured in a Spectromax Gemini plate reader (Molecular Devices; Sunnyvale Calif.)(ex 358 nm/em 450 nm).\nThe peptide/antibody complexes on the pins were washed five times in TBS, as described above, and incubated with 50 mg/mL MSP1-19 diluted in TBS for one hour at room temperature. The pins were washed in TBS as before and incubated in assay mixture for 30 minutes in the dark prior to measurement of the fluorescent intensity. Change in binding was determined using the equation: ΔF=(FMSP−Fb,MSP)/(F100,MSP−Fb,MSP)−(F0−Fb,0)/(F100,0−Fb,0) where FMSP and F0 are the fluorescence intensities of peptide containing pins after and before exposure to MSP1-19, respectively. Fb,MSP and Fb,0 are the fluorescence intensities of pins with no peptide after and before exposure to MSP1-19, respectively. F100,MSP and F100,0 are the fluorescence intensities of pins containing a control peptide, GLAQG (SEQ ID NO:90), after and prior to exposure to MSP1-19.", "units": {"ΔF (%)": "%"}, "values": [
      {"molecule": "ADAKC [Peptide 58]", "ΔF (%)": "<5"},
      {"molecule": "AKCTE [Peptide 60]", "ΔF (%)": 5},
      {"molecule": "CDADA [Peptide 56]", "ΔF (%)": "<5"},
      {"molecule": "CECTK [Peptide 76]", "ΔF (%)": "<5"},
      {"molecule": "CFRHL [Peptide 18]", "ΔF (%)": "<5"},
      {"molecule": "CKCLL [Peptide 28]", "ΔF (%)": "<5"},
      {"molecule": "CLLNY [Peptide 30]", "ΔF (%)": "<5"},
      {"molecule": "CNENN [Peptide 49]", "ΔF (%)": 16},
      {"molecule": "CPQNS [Peptide 12]", "ΔF (%)": "<5"},
      {"molecule": "CTEED [Peptide 62]", "ΔF (%)": "<5"},
      {"molecule": "CTKPD [Peptide 78]", "ΔF (%)": 10},
      {"molecule": "CVENP [Peptide 41]", "ΔF (%)": "<5"},
      {"molecule": "CVKKQ [Peptide 7]", "ΔF (%)": "<5"},
      {"molecule": "DADAK [Peptide 57]", "ΔF (%)": "<5"},
      {"molecule": "DAKCT [Peptide 59]", "ΔF (%)": "<5"},
      {"molecule": "DEREE [Peptide 23]", "ΔF (%)": "<5"},
      {"molecule": "DGIFC [Peptide 88]", "ΔF (%)": 7},
      {"molecule": "DKCVE [Peptide 39]", "ΔF (%)": "<5"},
      {"molecule": "DSGSN [Peptide 66]", "ΔF (%)": 9},
      {"molecule": "DSYPL [Peptide 82]", "ΔF (%)": 9},
      {"molecule": "ECKCL [Peptide 27]", "ΔF (%)": "<5"},
      {"molecule": "ECTKP [Peptide 77]", "ΔF (%)": 13},
      {"molecule": "EDSGS [Peptide 65]", "ΔF (%)": 7},
      {"molecule": "EECKC [Peptide 26]", "ΔF (%)": "<5"},
      {"molecule": "EEDSG [Peptide 64]", "ΔF (%)": 7},
      {"molecule": "EGDKC [Peptide 37]", "ΔF (%)": "<5"},
      {"molecule": "ENNGG [Peptide 51]", "ΔF (%)": "<5"},
      {"molecule": "ENPNP [Peptide 43]", "ΔF (%)": "<5"},
      {"molecule": "EREEC [Peptide 24]", "ΔF (%)": "<5"},
      {"molecule": "FDGIF [Peptide 87]", "ΔF (%)": 9},
      {"molecule": "FRHLD [Peptide 19]", "ΔF (%)": "<5"},
      {"molecule": "GCDAD [Peptide 55]", "ΔF (%)": 7},
      {"molecule": "GCFRH [Peptide 17]", "ΔF (%)": "<5"},
      {"molecule": "GDKCV [Peptide 38]", "ΔF (%)": "<5"},
      {"molecule": "GGCDA [Peptide 54]", "ΔF (%)": "<5"},
      {"molecule": "GIFCS [Peptide 89]", "ΔF (%)": 11},
      {"molecule": "GKKIT [Peptide 71]", "ΔF (%)": 6},
      {"molecule": "GSNGK [Peptide 68]", "ΔF (%)": "<5"},
      {"molecule": "HLDER [Peptide 21]", "ΔF (%)": "<5"},
      {"molecule": "HQCVK [Peptide 5]", "ΔF (%)": "<5"},
      {"molecule": "ISQHQ [Peptide 2]", "ΔF (%)": "<5"},
      {"molecule": "ITCEC [Peptide 74]", "ΔF (%)": 5},
      {"molecule": "KCLLN [Peptide 29]", "ΔF (%)": "<5"},
      {"molecule": "KCTEE [Peptide 61]", "ΔF (%)": 6},
      {"molecule": "KCVEN [Peptide 40]", "ΔF (%)": "<5"},
      {"molecule": "KITCE [Peptide 73]", "ΔF (%)": 7},
      {"molecule": "KKITC [Peptide 72]", "ΔF (%)": 9},
      {"molecule": "KKQCP [Peptide 9]", "ΔF (%)": "<5"},
      {"molecule": "KPDSY [Peptide 80]", "ΔF (%)": 11},
      {"molecule": "KQCPQ [Peptide 10]", "ΔF (%)": "<5"},
      {"molecule": "KQEGD [Peptide 35]", "ΔF (%)": "<5"},
      {"molecule": "LDERE [Peptide 22]", "ΔF (%)": "<5"},
      {"molecule": "LFDGI [Peptide 86]", "ΔF (%)": 11},
      {"molecule": "LLNYK [Peptide 31]", "ΔF (%)": "<5"},
      {"molecule": "LNYKQ [Peptide 32]", "ΔF (%)": "<5"},
      {"molecule": "NENNG [Peptide 50]", "ΔF (%)": 5},
      {"molecule": "NGGCD [Peptide 53]", "ΔF (%)": 10},
      {"molecule": "NGKKI [Peptide 70]", "ΔF (%)": 12},
      {"molecule": "NISQH [Peptide 1]", "ΔF (%)": "<5"},
      {"molecule": "NNGGC [Peptide 52]", "ΔF (%)": 6},
      {"molecule": "NPNPT [Peptide 44]", "ΔF (%)": "<5"}
    ]}
  ]
}
